This passage reports IC50 results from patent US7868013B2, “Cycloalkyl substituted pyrimidinediamine compounds and their uses” (Rigel Pharmaceuticals, Inc., priority 2004, dated 2011).

For test [1], the system named is H1299 (non-small cell lung carcinoma). In words: In vitro antiproliferation assay, H1299 cells (TABLE 1 6 point assay; TABLE 2). It counts as cell-based. The settings on record: 6 point assay, read-out: H1299, 6pt (IC50, inhibition of proliferation). The protocol:
(§1) Certain compounds were tested against other cell types for their ability to inhibit proliferation in standard antiproliferation assays.

A further test concerns A549 (lung carcinoma). In words: In vitro antiproliferation assay, A549 cells (TABLE 1 6 point assay; TABLE 2). The following applies: 6 point assay, read-out: A549, 6pt (IC50, inhibition of proliferation). The test is classed as cell-based. The protocol:
as §1

Where [2] appears, read: Homo sapiens, NCI-H1299, H1299 cells.

Read-outs that look alike come from different tables or passages of the source.

In the case of `Cc1cc(Nc2ncc(F)c(NC3C4C=CC(C4)C3C(=O)OC3C[C@@H](C)CC[C@@H]3C(C)C)n2)ccc1N1CCN(C)CC1` (mixture of isomers) [compound 135, Racemic (2-exo,3-exo)-5-Fluoro-N4-[3-(1R,2S,5R)-(−)-menthyloxycarbonylbicyclo[2.2.1]hept-5-en-2-yl]-N2-[3-methyl-4-(4-methylpiperazin-1-yl)phenyl]-2,4-pyrimidinediamine], the IC50 in test [1] (setting [2]) fell in the range of 1 to 10 µM; in the test with A549 (lung carcinoma) (Homo sapiens, A549, A549 cells), 1 to 10 µM.
As for `Cc1cc(Nc2ncc(F)c(N[C@H]3[C@@H](C(N)=O)[C@@H]4C=C[C@H]3C4)n2)ccc1OC1CCCN(C)C1` (mixture of isomers) [compound 147, (1R,2R,3S,4S)-N4-(3-Aminocarbonylbicyclo[2.2.1]hept-5-en-2-yl)-5-fluoro-N2-[3-methyl-4-(1-methylpiperidin-3(±)-yloxy)phenyl]-2,4-pyrimidinediamine], the IC50 (in test [1] (H1299 cells); in the test on A549 (lung carcinoma) (A549 cells)) was no more than 0.1 µM in each case.
`NC(=O)[C@@H]1CCC[C@@H]1Nc1nc(Nc2ccc3c(c2)NCC3)ncc1F` (racemic) [compound 156, Racemic-cis-N4-(2-aminocarbonylcyclopent-1-yl)-N2-(2,3-dihydroindol-6-yl)-5-fluoro-2,4-pyrimidinediamine]: the IC50 fell in the range of 1 to 10 µM in test [1] (setting [2]) and 1 to 10 µM with A549 (lung carcinoma) (Homo sapiens, A549, A549 cells).
As to `NC(=O)[C@@H]1CCC[C@@H]1Nc1nc(Nc2ccc3c(c2)CCN3)ncc1F` (racemic) [compound 157, Racemic-cis-N4-(2-aminocarbonylcyclopent-1-yl)-N2-(2,3-dihydroindol-5-yl)-5-fluoro-2,4-pyrimidinediamine], the IC50 in test [1] (setting [2]) was in the range of 1 to 10 µM; in the test on A549 (lung carcinoma) (Homo sapiens, A549, A549 cells), 1 to 10 µM.
As to `Cc1cc(Nc2ncc(F)c(N[C@H]3CCC[C@H]3C(=O)NCC3CC3)n2)ccc1N1CCN(C)CC1` (racemic) [compound 158, Racemic-cis-N4-[2-(N-cyclopropylmethyl)aminocarbonylcyclopent-1-yl]-5-fluoro-N2-[4-(4-methylpiperazin-1-yl)-3-methylphenyl]-2,4-pyrimidinediamine], the IC50 in test [1] (setting [2]) fell in the range of 1 to 10 µM; with A549 (lung carcinoma) (Homo sapiens, A549, A549 cells), 0.1 to 1 µM.
Take `Cc1cc(Nc2ncc(F)c(N[C@H]3CCC[C@H]3C(=O)NC3CC3)n2)ccc1N1CCN(C)CC1` (racemic) [compound 159, Racemic-cis-N4-[2-(N-cyclpropyl)aminocarbonylcyclopent-1-yl]-5-fluoro-N2-[4-(4-methylpiperazin-1-yl)-3-methylphenyl]-2,4-pyrimidinediamine]: the IC50 fell in the range of 0.1 to 1 µM in test [1] (setting [2]) and 0.1 to 1 µM in the test with A549 (lung carcinoma) (Homo sapiens, A549, A549 cells).
As to `CN(C)CCN1CCc2cc(Nc3ncc(F)c(N[C@@H]4[C@H](C(N)=O)[C@H]5C=C[C@@H]4C5)n3)ccc21` (racemic) [compound 160, Racemic-(2-exo,3-exo)-N4-[3-aminocarbonylbicyclo[2.2.1]hept-5-en-2-yl)-N2-[1-(2-dimethylaminoethyl)-2,3-dihydroindol-5-yl]-5-fluoro-2,4-pyrimidinediamine], the IC50 was no more than 0.1 µM in test [1] (setting [2]) and 0.1 to 1 µM in the test with A549 (lung carcinoma) (Homo sapiens, A549, A549 cells).
Turning to `Cn1ccc2cc(Nc3ncc(F)c(NC4C5C=CC(C5)C4C(N)=O)n3)ccc21` (racemic) [compound 161, Racemic-(2-exo,3-exo)-N4-[3-aminocarbonylbicyclo[2.2.1]hept-5-ene-2-yl)-5-fluoro-N2-(1-methylindol-5-yl)-2,4-pyrimidinediamine], the IC50 in test [1] (setting [2]) was 0.1 to 1 µM; with A549 (lung carcinoma) (Homo sapiens, A549, A549 cells) it was 0.1 to 1 µM.
For `Cc1cc(Nc2ncc(F)c(NC3C4C=CC(C4)C3C(=O)NC(C)C)n2)ccc1N1CCN(C)CC1` (racemic) [compound 162], the IC50 in test [1] (setting [2]) is no more than 0.1 µM; in the test with A549 (lung carcinoma) (Homo sapiens, A549, A549 cells) it was no more than 0.1 µM.
In the case of `CN(C)CCn1ccc2ccc(Nc3ncc(F)c(NC4C5C=CC(C5)C4C(N)=O)n3)cc21` (racemic) [compound 163, Racemic-(2-exo,3-exo)-N4-[3-aminocarbonylbicyclo[2.2.1]hept-5-en-2-yl)-N2-[1-(2-dimethylaminoethyl)indol-6-yl]-5-fluoro-2,4-pyrimidinediamine], the IC50 in test [1] (setting [2]) was 0.1 to 1 µM; with A549 (lung carcinoma) (Homo sapiens, A549, A549 cells) it was 0.1 to 1 µM.
For the compound `Cc1cc(Nc2ncc(F)c(NC3C4C=CC(C4)C3C(=O)NC3CC3)n2)ccc1N1CCN(C)CC1` (racemic) [compound 164, Racemic-(2-exo,3-exo)-N4-[3-(N-cyclopropyl)aminocarbonylbicyclo[2.2.1]hept-5-en-2-yl)-5-fluoro-N2-[3-methyl-4-(4-methylpiperazin-1-yl)phenyl]-2,4-pyrimidinediamine], the IC50 in test [1] (setting [2]) was no more than 0.1 µM; in the test on A549 (lung carcinoma) (Homo sapiens, A549, A549 cells), no more than 0.1 µM.
As for `Cc1cc(Nc2ncc(F)c(NC3C4C=CC(C4)C3C(=O)NC3CCC3)n2)ccc1N1CCN(C)CC1` (racemic) [compound 165, Racemic-(2-exo,3-exo)-N4-[3-(N-cyclobutyl)aminocarbonylbicyclo[2.2.1]hept-5-en-2-yl]-5-fluoro-N2-[3-methyl-4-(4-methylpiperazin-1-yl)phenyl]-2,4-pyrimidinediamine], the IC50 in test [1] (setting [2]) is no more than 0.1 µM; in the test with A549 (lung carcinoma) (Homo sapiens, A549, A549 cells) it was no more than 0.1 µM.
With `CNC(=O)C1C2C=CC(C2)C1Nc1nc(Nc2ccc(N3CCN(C)CC3)c(C)c2)ncc1F` (racemic) [compound 166, Racemic-(2-exo,3-exo)-N4-[3-(N-methyl)aminocarbonylbicyclo[2.2.1]hept-5-en-2-yl)-5-fluoro-N2-[3-methyl-4-(4-methylpiperazin-1-yl)phenyl]-2,4-pyrimidinediamine], the IC50 is no more than 0.1 µM in test [1] (setting [2]) and no more than 0.1 µM in the test on A549 (lung carcinoma) (Homo sapiens, A549, A549 cells).
Consider `CCNC(=O)C1C2C=CC(C2)C1Nc1nc(Nc2ccc(N3CCN(C)CC3)c(C)c2)ncc1F` (racemic) [compound 167, Racemic-(2-exo,3-exo)-N4-[3-(N-ethyl)aminocarbonylbicyclo[2.2.1]hept-5-en-2-yl]-5-fluoro-N2-[3-methyl-4-(4-methylpiperazin-1-yl)phenyl]-2,4-pyrimidinediamine], for which the IC50 is no more than 0.1 µM in test [1] (setting [2]) and no more than 0.1 µM in the test on A549 (lung carcinoma) (Homo sapiens, A549, A549 cells).
With `CCCNC(=O)C1C2C=CC(C2)C1Nc1nc(Nc2ccc(N3CCN(C)CC3)c(C)c2)ncc1F` (racemic) [compound 168, Racemic-(2-exo,3-exo)-5-fluoro-N2-[4-(4-methylpiperazin-1-yl)-3-methylphenyl]-N4-[3-(N-n-propyl)aminocarbonylbicyclo[2.2.1]hept-5-en-2-yl]-2,4-pyrimidinediamine], the IC50 in test [1] (setting [2]) is no more than 0.1 µM; in the test with A549 (lung carcinoma) (Homo sapiens, A549, A549 cells), no more than 0.1 µM.
In the case of `CN(C)CCn1ccc2ccc(Nc3ncc(F)c(NC4C5C=CC(C5)C4C(=O)NC4CC4)n3)cc21` (racemic) [compound 169, Racemic-(2-exo,3-exo)-N4-[3-cyclopropylaminocarbonylbicyclo[2.2.1]hept-5-en-2-yl)-N2-[1-(2-dimethylaminoethyl)indol-6-yl]-5-fluoro-2,4-pyrimidinediamine], the IC50 in test [1] (setting [2]) is 0.1 to 1 µM; with A549 (lung carcinoma) (Homo sapiens, A549, A549 cells), no more than 0.1 µM.
The corresponding values for `CN(C)CCN1CCc2cc(Nc3ncc(F)c(NC4C5C=CC(C5)C4C(=O)NC4CC4)n3)ccc21` (racemic) [compound 170, Racemic-(2-exo,3-exo)-N4-[3-cyclopropylaminocarbonylbicyclo[2.2.1]hept-5-en-2-yl)-N2-[1-(2-dimethylaminoethyl)-2,3-dihydroindol-5-yl]-5-fluoro-2,4-pyrimidinediamine] are no more than 0.1 µM and no more than 0.1 µM.
